{"source": "patent US6632621B1", "about": "“G protein-coupled receptor-like receptors and modulators thereof” (priority 1999, dated 2003)", "assay_type_in_all_cases": "biochemical, C. elegans", "key": {"CEGPCR5": {"target": "T1, CEGPCR5 (Caenorhabditis elegans, UniProt Q18179)", "T1 sequence (Q18179 1-402)": "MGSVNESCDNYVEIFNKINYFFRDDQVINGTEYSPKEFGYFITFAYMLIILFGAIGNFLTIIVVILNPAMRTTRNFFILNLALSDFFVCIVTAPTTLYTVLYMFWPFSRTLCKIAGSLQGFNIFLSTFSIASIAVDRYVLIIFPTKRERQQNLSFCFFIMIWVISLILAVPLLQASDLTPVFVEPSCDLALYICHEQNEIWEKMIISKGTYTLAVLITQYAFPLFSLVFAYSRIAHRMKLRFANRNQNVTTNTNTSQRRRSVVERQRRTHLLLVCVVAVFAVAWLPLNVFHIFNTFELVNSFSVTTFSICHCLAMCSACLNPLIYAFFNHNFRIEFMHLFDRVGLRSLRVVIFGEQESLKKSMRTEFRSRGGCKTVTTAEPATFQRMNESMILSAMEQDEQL", "assay": "[35S]GTPγS binding assay, CEGPCR5 expressed in CHO cells", "method": "(§1) Recombinant pCR3.1 clones encoding invertebrate GPCR-like receptors were transformed into wild-type CHO-K1 cells and functional expression was achieved using a temperature-shift incubation protocol. The CHO-K1 cells were cultured at 37° C. in a humidified atmosphere of 5% CO2 in air in DMEM medium supplemented with 10% heat-inactivated fetal bovine serum (i.e., FBS), 10 μg/ml gentamicin, and 0.1 mM nonessential amino acids to give complete DMEM medium. Additionally, for incubations at temperatures lower than 37° C., the medium was fortified with 10 mM HEPES (pH 7.4). Cells were transfected with recombinant pCR3.1 clones containing GPCR-like receptor DNAs, using LipofectAMINE PLUS™, essentially according to the manufacturer's instructions. […] In separate plastic tubes, PLUS (20 μl/plate; Life Technologies) was added to 0.75 ml/plate of recombinant plasmid DNA in OptiMEM (5 μg/plate; Gibco/BRL—Life Technologies), mixed and incubated at room temperature for 15 minutes. Separately, LipofectAMINE (30 μl/plate) was mixed with 0.75 ml OptiMEM and added to the pre-complexed DNA/PLUS mixture and incubated at room temperature for 15 minutes. The culture medium was then replaced with serum-free transfection medium (DMEM, 5 ml/plate). The DNA-PLUS-LipofectAMINE complex was then added to the plates (1.5 ml/plate) and mixed gently into the medium, followed by a 3 hour incubation at 37° C. in 5% CO2. At this time, the medium was supplemented with complete DMEM medium containing 20% FBS (6.5 ml/plate) and incubation was continued at 37° C. in 5% CO2. After a total of 24 hours at 37° C. in 5% CO2, the medium was replaced with complete DMEM medium fortified with 10 mM HEPES (10 ml/plate) and the cells were moved to an incubator maintained at 28-30° C. in a humidified atmosphere of 5% CO2 in air. The incubation continued for an additional 24 hours, typically at the lower temperature indicated above. A plasmid encoding Green Fluorescent Protein (i.e., GFP, 4 μg/plate) was used for transient GFP expression in CHO-K1 cells to estimate the transfection yields under the same conditions as used for GPCR-like receptor polynucleotides.\n(§2) To assess expression, membranes were prepared from transfected CHO-K1 cells. Transfected cells were washed once with ice-cold Dulbecco's phosphate-buffered saline (i.e., PBS), 5 ml per 10 cm plate, and the cells were scraped into 5 ml of the same buffer. Cell suspensions from multiple plates were combined and centrifuged at 500×g for 10 minutes at 4° C. The cell pellet was reconstituted in ice-cold TEE (25 mM Tris, pH 7.4, 5 mM EGTA, 5 mM EDTA). Convenient aliquots were snap-frozen in liquid nitrogen and stored at −70° C. After thawing, the cells were homogenized and centrifuged at 500×g for 5 minutes at 4° C. to pellet nuclei and unbroken cells. Tile supernatant was centrifuged at 47,000×g for 30 minutes at 4° C. The membrane pellet was washed once with TEE, resuspended in 20 mM HEPES, pH 7.4, 100 mM NaCl, 10 mM MgCl2, 1 mM EDTA (assay buffer), distributed into aliquots of 0.5-1.0 ml, and frozen in liquid nitrogen. Membrane aliquots were stored at −70° C. Membrane protein concentration was determined using the BCA Protein Assay Reagent from Pierce (Rockford, Ill.), with bovine serum albumin (i.e., BSA) as a standard.\n(§3) Aliquots of cell membranes prepared as described above and stored at −70° C. were thawed, homogenized, and diluted into buffer containing 20 mM HEPES, pH 7.4, 10 mM MgCl2, 1 mM EDTA, and 100 mM NaCl at a concentration of 10-50 μg/ml. Reaction mixtures were prepared in 96-well polypropylene plate, Nunc. Twenty microliters of a 10× putative modulator compound (including but not limited to potential peptide ligands) solution or a water control (20 μl), 18.2 µM GDP (0.11 ml, 10 μM final concentration), and a membrane preparation were mixed and placed on ice. The modulator/ligand-GDP-membrane mixtures were incubated for 20 minutes at room temperature on a shaking platform and then placed on ice."}, "CEGPCR16 receptor": {"target": "T2, CEGPCR16 receptor (Caenorhabditis elegans, UniProt Q9XXU4)", "T2 sequence (Q9XXU4 1-365)": "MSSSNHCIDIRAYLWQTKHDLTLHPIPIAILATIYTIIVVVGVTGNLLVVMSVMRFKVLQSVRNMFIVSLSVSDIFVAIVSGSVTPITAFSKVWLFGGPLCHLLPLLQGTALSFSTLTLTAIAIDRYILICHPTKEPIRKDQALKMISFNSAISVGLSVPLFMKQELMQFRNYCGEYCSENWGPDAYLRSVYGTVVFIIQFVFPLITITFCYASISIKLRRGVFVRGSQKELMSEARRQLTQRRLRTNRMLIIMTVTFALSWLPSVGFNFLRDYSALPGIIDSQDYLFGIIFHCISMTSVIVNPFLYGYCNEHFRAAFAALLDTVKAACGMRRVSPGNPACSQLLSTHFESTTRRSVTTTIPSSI", "assay": "[35S]GTPγS binding assay, CEGPCR16 expressed in CHO cells", "settings": "Table 10; one range for the group of peptides; read-out: EC50 range", "method": "as §1, §2, §3"}, "CEGPCR12h receptor": {"target": "T3, CEGPCR12h receptor (Caenorhabditis elegans, UniProt Q20275)", "T3 sequence (Q20275 1-402)": "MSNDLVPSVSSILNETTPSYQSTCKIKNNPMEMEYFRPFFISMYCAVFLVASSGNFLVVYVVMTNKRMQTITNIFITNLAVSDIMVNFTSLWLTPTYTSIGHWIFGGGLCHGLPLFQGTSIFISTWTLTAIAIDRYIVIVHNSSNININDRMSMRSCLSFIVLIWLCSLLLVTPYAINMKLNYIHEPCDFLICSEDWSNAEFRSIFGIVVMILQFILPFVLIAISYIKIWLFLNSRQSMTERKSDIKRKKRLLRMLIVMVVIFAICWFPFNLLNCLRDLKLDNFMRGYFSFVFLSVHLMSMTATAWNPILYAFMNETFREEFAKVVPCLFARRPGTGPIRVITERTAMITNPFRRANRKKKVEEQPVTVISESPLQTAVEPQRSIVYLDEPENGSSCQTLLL", "assay": "[35S]GTPγS binding assay, CEGPCR12h expressed in CHO cells", "settings": "for activity at single concentration: peptides tested at 5 μM", "method": "as §1, §2, §3"}, "[1]": {"settings": "EC50 range, Table 11, one range for the group, results apply to all CEGPCR12 isoforms"}, "[2]": {"settings": "EC50 range, Table 9, one range for the group of peptides"}}, "note": "Read-outs that look alike come from different tables or passages of the source. Where a SMILES comes first, the peptide text is derived from it. Where no end group is shown, it is not given here. [ ]: non-standard residue; d: D form. Tyr(3-I) = N[C@@H](Cc1ccc(O)c(I)c1)C(=O)O; pGlu = O=C1CC[C@@H](C(=O)O)N1", "data": [{"compound": "KHEYLRF-NH2 [KHEYLRF-NH2]", "values": [{"measurement": "EC50", "setting": "CEGPCR5", "value": "1000 to 8000", "unit": "nM"}]}, {"compound": "EAEEPLGTMRF-NH2 [EAEEPLGTMRF-NH2]", "values": [{"measurement": "EC50", "setting": "CEGPCR16 receptor", "value": "60 to 300", "unit": "nM"}]}, {"compound": "CC(C)C[C@H](NC(=O)[C@H](Cc1ccccc1)NC(=O)[C@@H](NC(=O)[C@H](Cc1c[nH]cn1)NC(=O)[C@H](CC(=O)O)NC(=O)[C@@H](NC(=O)[C@H](CC(=O)O)NC(=O)[C@@H]1CCC(=O)N1)C(C)C)C(C)C)C(=O)N[C@@H](CCCNC(=N)N)C(=O)N[C@@H](Cc1ccccc1)C(N)=O", "note": "[pQDVDHVFLRF-NH2] ([pGlu]DVDHVFLRF-NH2)", "values": [{"measurement": "EC50", "setting": "CEGPCR12h receptor; [1]", "value": "1500 to 3000", "unit": "nM"}]}, {"compound": "YGLGPRPLRF-NH2 [YGLGPRPLRF-NH2]", "values": [{"measurement": "EC50", "setting": "CEGPCR5; [2]", "value": "80 to 800", "unit": "nM"}]}, {"compound": "FDDYGHLRF-NH2 [FDDYGHLRF-NH2]", "values": [{"measurement": "EC50", "setting": "CEGPCR12h receptor; Table 11, one range for the group, results apply to all CEGPCR12 isoforms, read-out: EC50 range", "value": "300 to 500", "unit": "nM"}]}, {"compound": "DPSFLRF-NH2 [DPSFLRF-NH2]", "values": [{"measurement": "EC50", "setting": "CEGPCR5", "value": "80 to 800", "unit": "nM"}]}, {"compound": "SEVPGVLRF-NH2 [SEVPGVLRF-NH2]", "values": [{"measurement": "EC50", "setting": "CEGPCR16 receptor", "value": "700 to 4600", "unit": "nM"}]}, {"compound": "CC(C)C[C@H](NC(=O)[C@H](Cc1ccccc1)NC(=O)[C@@H](NC(=O)[C@H](Cc1c[nH]cn1)NC(=O)[C@H](CC(=O)O)NC(=O)[C@@H](NC(=O)[C@H](CC(=O)O)NC(=O)[C@@H]1CCCN1C(=O)[C@@H](N)Cc1ccc(O)c(I)c1)C(C)C)C(C)C)C(=O)N[C@@H](CCCNC(=N)N)C(=O)N[C@@H](Cc1ccccc1)C(N)=O", "note": "[[I]Y^0PDVDHVFLRF-NH2] (H-[Tyr(3-I)]PDVDHVFLRF-NH2)", "values": [{"measurement": "EC50", "setting": "CEGPCR12h receptor; EC50", "value": 478, "unit": "nM"}, {"measurement": "EC50", "setting": "CEGPCR12h receptor; [1]", "value": "300 to 500", "unit": "nM"}]}, {"compound": "KSVPGVLRF-NH2 [KSVPGVLRF-NH2]", "values": [{"measurement": "EC50", "setting": "CEGPCR16 receptor", "value": "700 to 4600", "unit": "nM"}, {"measurement": "EC50", "setting": "CEGPCR5", "value": "1000 to 8000", "unit": "nM"}, {"measurement": "activity at single concentration", "setting": "CEGPCR12h receptor; Table 11", "value": "active at"}]}, {"compound": "AVPGVLRF-NH2 [AVPGVLRF-NH2]", "values": [{"measurement": "EC50", "setting": "CEGPCR16 receptor", "value": "700 to 4600", "unit": "nM"}, {"measurement": "activity at single concentration", "setting": "CEGPCR12h receptor; Table 11", "value": "active at"}]}, {"compound": "TDVDHVFLRF-NH2 [TDVDHVFLRF-NH2]", "values": [{"measurement": "EC50", "setting": "CEGPCR12h receptor; [1]", "value": "1500 to 3000", "unit": "nM"}]}, {"compound": "TNRNFLRF-NH2 [TNRNFLRF-NH2]", "values": [{"measurement": "EC50", "setting": "CEGPCR5; [2]", "value": "80 to 800", "unit": "nM"}]}, {"compound": "SAEPFGTMRF-NH2 [SAEPFGTMRF-NH2]", "values": [{"measurement": "EC50", "setting": "CEGPCR16 receptor", "value": "60 to 300", "unit": "nM"}]}, {"compound": "KPNFLRF-NH2 [KPNFLRF-NH2]", "values": [{"measurement": "EC50", "setting": "CEGPCR5", "value": "1000 to 8000", "unit": "nM"}]}, {"compound": "AGAKFIRF-NH2 [AGAKFIRF-NH2]", "values": [{"measurement": "EC50", "setting": "CEGPCR5", "value": "1000 to 8000", "unit": "nM"}]}, {"compound": "SPLGTMRF-NH2 [SPLGTMRF-NH2]", "values": [{"measurement": "EC50", "setting": "CEGPCR16 receptor", "value": "60 to 300", "unit": "nM"}]}, {"compound": "KPNFLRY-NH2 [KPNFLRY-NH2]", "values": [{"measurement": "EC50", "setting": "CEGPCR5; [2]", "value": "1000 to 8000", "unit": "nM"}]}, {"compound": "GDVPGVLRF-NH2 [GDVPGVLRF-NH2]", "values": [{"measurement": "EC50", "setting": "CEGPCR16 receptor", "value": "700 to 4600", "unit": "nM"}, {"measurement": "activity at single concentration", "setting": "CEGPCR12h receptor; Table 11", "value": "active at"}]}]}
